The record followed here is patent US20210253575A1, “PYRROLIDINE AMINE COMPOUNDS FOR THE TREATMENT OF AUTOIMMUNE DISEASE” (Hoffmann-La Roche Inc., priority 2018, published 2021).

SMILES strings stand for the structures.

The target of the assay is T1, human TLR9 (Homo sapiens, UniProt Q9NR96).
T1 sequence (Q9NR96 26-1032): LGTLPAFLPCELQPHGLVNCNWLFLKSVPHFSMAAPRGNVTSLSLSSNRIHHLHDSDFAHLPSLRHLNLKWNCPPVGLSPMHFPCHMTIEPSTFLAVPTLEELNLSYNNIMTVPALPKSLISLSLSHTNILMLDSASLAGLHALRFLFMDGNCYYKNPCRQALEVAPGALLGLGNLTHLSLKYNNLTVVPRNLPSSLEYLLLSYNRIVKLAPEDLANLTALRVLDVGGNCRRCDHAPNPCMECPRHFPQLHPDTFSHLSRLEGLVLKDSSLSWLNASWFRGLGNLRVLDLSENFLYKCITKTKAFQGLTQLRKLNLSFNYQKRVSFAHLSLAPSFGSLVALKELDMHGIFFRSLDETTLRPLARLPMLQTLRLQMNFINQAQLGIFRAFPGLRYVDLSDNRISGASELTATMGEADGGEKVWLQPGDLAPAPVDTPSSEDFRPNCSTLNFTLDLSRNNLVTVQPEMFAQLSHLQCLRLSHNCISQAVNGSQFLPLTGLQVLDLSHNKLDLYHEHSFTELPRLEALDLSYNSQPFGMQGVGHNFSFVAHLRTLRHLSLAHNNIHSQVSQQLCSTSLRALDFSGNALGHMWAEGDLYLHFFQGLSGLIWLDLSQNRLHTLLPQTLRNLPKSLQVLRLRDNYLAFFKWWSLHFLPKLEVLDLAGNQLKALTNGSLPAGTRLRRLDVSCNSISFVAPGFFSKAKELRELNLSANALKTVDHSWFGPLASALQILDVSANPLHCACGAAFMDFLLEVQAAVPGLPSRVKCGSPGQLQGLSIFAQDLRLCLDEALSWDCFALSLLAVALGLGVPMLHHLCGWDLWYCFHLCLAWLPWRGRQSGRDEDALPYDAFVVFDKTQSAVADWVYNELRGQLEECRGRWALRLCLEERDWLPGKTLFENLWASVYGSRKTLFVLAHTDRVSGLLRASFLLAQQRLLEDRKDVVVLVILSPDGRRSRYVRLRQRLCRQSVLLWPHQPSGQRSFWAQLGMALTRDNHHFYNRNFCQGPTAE
Description: HEK293-Blue-hTLR-9 cells assay (SEAP reporter, ODN2006 stimulation). The assay is classed as cell-based. The conditions noted are these: HEK293-Blue-hTLR9 cells, ODN2006 ligand, 20 hrs incubation. In a few lines: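 HEK293-Blue-hTLR9 cells with NF-κB/AP-1-driven SEAP reporter, stimulated with ODN2006 in presence of serially diluted compounds (1% DMSO) for 20 h at 37 °C. Supernatant SEAP measured with QUANTI-Blue after 2 h at 37 °C, absorbance 620–655 nm.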
Consider `N#Cc1ccc(N2C[C@H](CN3CC4CNCC4C3)[C@@H](C(F)(F)F)C2)c2nccnc12` (stereo partly drawn) [Example 76, 8-[(3S,4R)-3-(2,3,3a,4,6,6a-hexahydro-1H-pyrrolo[3,4-c]pyrrol-5-ylmethyl)-4-(trifluoromethyl)pyrrolidin-1-yl]quinoxaline-5-carbonitrile], for which the midpoint of inhibition, the IC50, lay at 485 nM.
Molecule `N#Cc1ccc(N2CC(CN3CC4(CC(N)C4)C3)C3(CC3)C2)c2nccnc12` (stereo not drawn) [Example 42, 8-[7-[(6-Amino-2-azaspiro[3.3]heptan-2-yl)methyl]-5-azaspiro[2.4]heptan-5-yl]quinoxaline-5-carbonitrile] registered a 50% inhibitory concentration (IC50) of 153 nM.
As for `N#Cc1ccc(N2CC(CN3CCC4(CCCNC4)CC3)C3(CC3)C2)c2nccnc12` (stereo not drawn) [Example 13, 8-[7-(2,9-Diazaspiro[5.5]undecan-9-ylmethyl)-5-azaspiro[2.4]heptan-5-yl]quinoxaline-5-carbonitrile], the IC50 is 60 nM.
The molecule `N#Cc1ccc(N2CC(CN3CCC(N)CC3)C3(CC3)C2)c2nccnc12` (stereo not drawn) [Example 68, 8-[7-[(4-Amino-1-piperidyl)methyl]-5-azaspiro[2.4]heptan-5-yl]quinoxaline-5-carbonitrile] showed an IC50 of 93 nM.
On to `FC(F)(F)c1ccc(N2CC(CN3CCNCC3)C3(CC3)C2)c2nccnc12` (stereo not drawn) [Example 20, 5-[7-(Piperazin-1-ylmethyl)-5-azaspiro[2.4]heptan-5-yl]-8-(trifluoromethyl)quinoxaline], for which 5640 nM corresponded to half-maximal inhibition (IC50).
With `N#Cc1ccc(N2C[C@H](CN3CC4(CCNCC4)C3)[C@@H](C(F)(F)F)C2)c2nccnc12` [Example 48, 8-[(3S,4R)-3-(2,7-diazaspiro[3.5]nonan-2-ylmethyl)-4-(trifluoromethyl)pyrrolidin-1-yl]quinoxaline-5-carbonitrile], it took 97 nM to reach half-maximal inhibition (IC50).
With `N#Cc1ccc(N2C[C@H](CN3CCC4(CCNC4)C3)[C@@H](C(F)(F)F)C2)c2nccnc12` (stereo partly drawn) [Example 5, 8-[(3S,4R)-3-(2,7-diazaspiro[4.4]nonan-2-ylmethyl)-4-(trifluoromethyl)pyrrolidin-1-yl]quinoxaline-5-carbonitrile] the figure was 137 nM; with `CN(C)C[C@@H]1CCN(C[C@H]2CN(c3ccc(C#N)c4nccnc34)C[C@@H]2C(F)(F)F)C1` [Example 82, 8-[(3S,4R)-3-[[(3S)-3-[(dimethylamino)methyl]pyrrolidin-1-yl]methyl]-4-(trifluoromethyl)pyrrolidin-1-yl]quinoxaline-5-carbonitrile], 304 nM; with `N#Cc1ccc(N2C[C@H](CN3CCC4(CCNC4)CC3)[C@@H](C(F)(F)F)C2)c2nccnc12` [Example 14, 8-[(3S,4R)-3-(2,8-Diazaspiro[4.5]decan-8-ylmethyl)-4-(trifluoromethyl)pyrrolidin-1-yl]quinoxaline-5-carbonitrile], 153 nM.
As to `N#Cc1ccc(N2C[C@H](CN3CCCC(F)(CN)C3)[C@@H](C(F)(F)F)C2)c2nccnc12` (stereo partly drawn) [Example 78, 8-[(3S,4R)-3-[[3-(aminomethyl)-3-fluoro-1-piperidyl]methyl]-4-(trifluoromethyl)pyrrolidin-1-yl]quinoxaline-5-carbonitrile], half-maximal inhibition (IC50) required 1920 nM.
The molecule `N#Cc1ccc(N2CC(CN3CCC4NCC4C3)C3(CC3)C2)c2nccnc12` (stereo not drawn) [Example 66, 8-[7-(3,7-Diazabicyclo[4.2.0]octan-3-ylmethyl)-5-azaspiro[2.4]heptan-5-yl]quinoxaline-5-carbonitrile] gave a 50% inhibitory concentration (IC50) of 123 nM.
For the molecule `N#Cc1ccc(N2CC(CN3CCC4(CC3)CNCCO4)C3(CC3)C2)c2nccnc12` (stereo not drawn) [Example 49, 8-[7-(1-Oxa-4,9-diazaspiro[5.5]undecan-9-ylmethyl)-5-azaspiro[2.4]heptan-5-yl]quinoxaline-5-carbonitrile], the IC50 is 87 nM.
